Measurements as given in PubChem BioAssay (NCI).
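All cell lines were grown in 96-well plates and treated with compound for 48 hours. TGI marks complete inhibition of growth.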

Assays:
Experiment in all cases: NCI tumour cell line growth inhibition, 48 h
786-0 renal = test system: 786-0 renal
A498 renal = test system: A498 renal
A549 NSCLC = test system: A549 NSCLC
ACHN renal = test system: ACHN renal
CAKI-1 renal = test system: CAKI-1 renal
CCRF-CEM leukemia = test system: CCRF-CEM leukemia
COLO 205 colon = test system: COLO 205 colon
DLD-1 colon = test system: DLD-1 colon
DMS 114 small cell lung = test system: DMS 114 small cell lung
DMS 273 small cell lung = test system: DMS 273 small cell lung
EKVX NSCLC = test system: EKVX NSCLC
HCC-2998 colon = test system: HCC-2998 colon
HCT-116 colon = test system: HCT-116 colon
HCT-15 colon = test system: HCT-15 colon
HL-60(TB) leukemia = test system: HL-60(TB) leukemia
HOP-18 NSCLC = test system: HOP-18 NSCLC
HOP-62 NSCLC = test system: HOP-62 NSCLC
HOP-92 NSCLC = test system: HOP-92 NSCLC
HT29 colon = test system: HT29 colon
IGROV1 ovarian = test system: IGROV1 ovarian
K-562 leukemia = test system: K-562 leukemia
KM12 colon = test system: KM12 colon
KM20L2 colon = test system: KM20L2 colon
LOX IMVI melanoma = test system: LOX IMVI melanoma
LXFL 529 NSCLC = test system: LXFL 529 NSCLC
M14 melanoma = test system: M14 melanoma
M19-MEL melanoma = test system: M19-MEL melanoma
MALME-3M melanoma = test system: MALME-3M melanoma
MOLT-4 leukemia = test system: MOLT-4 leukemia
NCI-H226 lung = test system: NCI-H226 lung
NCI-H23 lung = test system: NCI-H23 lung
NCI-H460 lung = test system: NCI-H460 lung
NCI-H522 lung = test system: NCI-H522 lung
OVCAR-3 ovarian = test system: OVCAR-3 ovarian
OVCAR-4 ovarian = test system: OVCAR-4 ovarian
OVCAR-5 ovarian = test system: OVCAR-5 ovarian
OVCAR-8 ovarian = test system: OVCAR-8 ovarian
RPMI-8226 leukemia = test system: RPMI-8226 leukemia
RXF 393 renal = test system: RXF 393 renal
RXF-631 renal = test system: RXF-631 renal
SF-268 CNS = test system: SF-268 CNS
SF-295 CNS = test system: SF-295 CNS
SF-539 CNS = test system: SF-539 CNS
SK-MEL-2 melanoma = test system: SK-MEL-2 melanoma
SK-MEL-28 melanoma = test system: SK-MEL-28 melanoma
SK-MEL-5 melanoma = test system: SK-MEL-5 melanoma
SK-OV-3 ovarian = test system: SK-OV-3 ovarian
SN12C renal = test system: SN12C renal
SNB-19 CNS = test system: SNB-19 CNS
SNB-75 CNS = test system: SNB-75 CNS
SNB-78 CNS = test system: SNB-78 CNS
SR leukemia = test system: SR leukemia
SW-620 colon = test system: SW-620 colon
TK-10 renal = test system: TK-10 renal
U251 CNS = test system: U251 CNS
UACC-257 melanoma = test system: UACC-257 melanoma
UACC-62 melanoma = test system: UACC-62 melanoma
UO-31 renal = test system: UO-31 renal
XF 498 CNS = test system: XF 498 CNS

## C[C@]12CCc3nonc3C1CC[C@@H]1C2CC[C@]2(C)C(=O)/C(=N\O)CC12 (some centres undefined)
786-0 renal
  TGI: > 100 µM
A498 renal
  TGI: > 100 µM
A549 NSCLC
  TGI: > 100 µM
ACHN renal
  TGI: > 100 µM
CAKI-1 renal
  TGI: > 100 µM
CCRF-CEM leukemia
  TGI: > 100 µM
COLO 205 colon
  TGI: > 100 µM
DLD-1 colon
  TGI: > 100 µM
DMS 114 small cell lung
  TGI: > 100 µM
DMS 273 small cell lung
  TGI: > 100 µM
EKVX NSCLC
  TGI: > 100 µM
HCC-2998 colon
  TGI: > 100 µM
HCT-116 colon
  TGI: > 100 µM
HCT-15 colon
  TGI: > 100 µM
HL-60(TB) leukemia
  TGI: 3.69 µM
HOP-18 NSCLC
  TGI: > 100 µM
HOP-62 NSCLC
  TGI: > 100 µM
HOP-92 NSCLC
  TGI: > 100 µM
HT29 colon
  TGI: > 100 µM
IGROV1 ovarian
  TGI: > 100 µM
K-562 leukemia
  TGI: > 100 µM
KM12 colon
  TGI: > 100 µM
KM20L2 colon
  TGI: > 100 µM
LOX IMVI melanoma
  TGI: > 100 µM
LXFL 529 NSCLC
  TGI: > 100 µM
M14 melanoma
  TGI: > 100 µM
M19-MEL melanoma
  TGI: > 100 µM
MALME-3M melanoma
  TGI: > 100 µM
MOLT-4 leukemia
  TGI: > 100 µM
NCI-H226 lung
  TGI: > 100 µM
NCI-H23 lung
  TGI: > 100 µM
NCI-H460 lung
  TGI: > 100 µM
NCI-H522 lung
  TGI: 32 µM
OVCAR-3 ovarian
  TGI: > 100 µM
OVCAR-4 ovarian
  TGI: > 100 µM
OVCAR-5 ovarian
  TGI: > 100 µM
OVCAR-8 ovarian
  TGI: > 100 µM
RPMI-8226 leukemia
  TGI: > 100 µM
RXF 393 renal
  TGI: > 100 µM
RXF-631 renal
  TGI: > 100 µM
SF-268 CNS
  TGI: > 100 µM
SF-295 CNS
  TGI: > 100 µM
SF-539 CNS
  TGI: > 100 µM
SK-MEL-2 melanoma
  TGI: > 100 µM
SK-MEL-28 melanoma
  TGI: > 100 µM
SK-MEL-5 melanoma
  TGI: > 100 µM
SK-OV-3 ovarian
  TGI: > 100 µM
SN12C renal
  TGI: > 100 µM
SNB-19 CNS
  TGI: > 100 µM
SNB-75 CNS
  TGI: > 100 µM
SNB-78 CNS
  TGI: > 100 µM
SR leukemia
  TGI: > 100 µM
SW-620 colon
  TGI: > 100 µM
TK-10 renal
  TGI: > 100 µM
U251 CNS
  TGI: > 100 µM
UACC-257 melanoma
  TGI: > 100 µM
UACC-62 melanoma
  TGI: > 100 µM
UO-31 renal
  TGI: > 100 µM
XF 498 CNS
  TGI: > 100 µM
